Source: US20020051978A1, “Methods and compositions for the identification, assessment, prevention and therapy of human cancers” (priority 2000, published 2002)
Several values for one entry are separate records, joined by “and”; a condition that tells them apart may be missing. Equal entries are not always repeated. Where two headings read alike, the source gives them in different places.

Experiments:
tumor = conditions: animal models; cited from earlier work
[1] = system: 60 cancer cell lines (NCI 60 cancer cell line series); test: NCI-DTP in vitro cancer screen, sulforhodamine B (SRB) growth inhibition, 48 hour exposure; type: cell-based, human
Outline: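 Values come from the NCI-DTP screen database: -log GI50, the concentration giving 50% growth inhibition, derived from SRB cell-mass dose-response curves. Each line seeded at its own density, treated day 1 at five ten-fold-spaced doses in duplicate wells, stained after 48 h.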

[2] = system: 60 cancer cell lines (NCI 60 cancer cell line series); conditions: cited from earlier work

Compound: CC(=O)O[C@@]12CO[C@@H]1C[C@H](O)[C@@]1(C)C(=O)[C@H](O)C3=C(C)[C@@H](OC(=O)[C@H](O)[C@@H](NC(=O)OC(C)(C)C)c4ccccc4)C[C@@](O)([C@@H](OC(=O)c4ccccc4)[C@H]21)C3(C)C [Taxotere, docetaxel]
- anti-tumor activity (tumor): good anti-tumor activity

Compound: Bleomycin
- classification of cell line as Low(1), Medium(2) or High(3) sensitivity to compound ([1]; Breast MCF7(I) (CL5001)): 2
- classification of cell line as Low(1), Medium(2) or High(3) sensitivity to compound ([1]; Breast MCF7/ADRr (CL5002)): 2
- classification of cell line as Low(1), Medium(2) or High(3) sensitivity to compound ([1]; Breast MDA-MB-231 CL5005): 1
- classification of cell line as Low(1), Medium(2) or High(3) sensitivity to compound ([1]; Breast MDA-MB-435 (CL5011)): 1
- classification of cell line as Low(1), Medium(2) or High(3) sensitivity to compound ([1]; Breast MDA-N CL5012): 1
- classification of cell line as Low(1), Medium(2) or High(3) sensitivity to compound ([1]; Breast T-47D (CL5014)): 2
- classification of cell line as Low(1), Medium(2) or High(3) sensitivity to compound ([1]; CNS SF-268 CL12014): 2
- classification of cell line as Low(1), Medium(2) or High(3) sensitivity to compound ([1]; CNS SF-295 CL12015): 3
- classification of cell line as Low(1), Medium(2) or High(3) sensitivity to compound ([1]; CNS SF-539 CL12016): 3
- classification of cell line as Low(1), Medium(2) or High(3) sensitivity to compound ([1]; CNS SNB-19 (CL12002)): 2
- classification of cell line as Low(1), Medium(2) or High(3) sensitivity to compound ([1]; CNS SNB-75(I) CL12005): 2
- classification of cell line as Low(1), Medium(2) or High(3) sensitivity to compound ([1]; CNS U251(I) CL12009): 2
- classification of cell line as Low(1), Medium(2) or High(3) sensitivity to compound ([1]; Colon COLO-250 CL4010): 2
- classification of cell line as Low(1), Medium(2) or High(3) sensitivity to compound ([1]; Colon HCT-15 CL4015): 2
- classification of cell line as Low(1), Medium(2) or High(3) sensitivity to compound ([1]; Colon HCT-116 (CL4003)): 2
- classification of cell line as Low(1), Medium(2) or High(3) sensitivity to compound ([1]; Colon HT29(I) CL4001): 1
- classification of cell line as Low(1), Medium(2) or High(3) sensitivity to compound ([1]; Colon KM12 (CL4017)): 1
- classification of cell line as Low(1), Medium(2) or High(3) sensitivity to compound ([1]; Colon SW-620 (CL4009)): 2
- classification of cell line as Low(1), Medium(2) or High(3) sensitivity to compound ([1]; Leukemia CCRF-CEM(I) (CL7003)): 2
- classification of cell line as Low(1), Medium(2) or High(3) sensitivity to compound ([1]; Leukemia HL-60(I) (CL7008)): 2
- classification of cell line as Low(1), Medium(2) or High(3) sensitivity to compound ([1]; Leukemia K562(I) CL7005): 2
- classification of cell line as Low(1), Medium(2) or High(3) sensitivity to compound ([1]; Leukemia MOLT-4 (CL7006)): 2
- classification of cell line as Low(1), Medium(2) or High(3) sensitivity to compound ([1]; Leukemia SR CL7019): 3
- classification of cell line as Low(1), Medium(2) or High(3) sensitivity to compound ([1]; Melanoma LOX IMVI CL10001): 3
- classification of cell line as Low(1), Medium(2) or High(3) sensitivity to compound ([1]; Melanoma M14 (CL10014)): 2
- classification of cell line as Low(1), Medium(2) or High(3) sensitivity to compound ([1]; Melanoma MALME-3M CL10002): 2
- sensitivity class NSCLC NCI-H23(I) CL1001 ([1]; cell line NSCLC NCI-H23(I), CL1001): 2
- sensitivity class NSCLC NCI-H332M CL1017 ([1]; cell line NSCLC NCI-H332M, CL1017): 1
- sensitivity class NSCLC NCI-H522 CL1003 ([1]; cell line NSCLC NCI-H522, CL1003): 2
- sensitivity class Ovarian IGROV1 CL6010 ([1]; cell line Ovarian IGROV1, CL6010): 2
- sensitivity class Ovarian OVCAR-3 CL6001 ([1]; cell line Ovarian OVCAR-3, CL6001): 2
- sensitivity class Ovarian OVCAR-4 CL6002 ([1]; cell line Ovarian OVCAR-4, CL6002): 2
- sensitivity class Ovarian OVCAR-5 CL6003 ([1]; cell line Ovarian OVCAR-5, CL6003): 2
- sensitivity class Ovarian OVCAR-8 CL6005 ([1]; cell line Ovarian OVCAR-8, CL6005): 2
- sensitivity class Ovarian SK-OV-3 CL6011 ([1]; cell line Ovarian SK-OV-3, CL6011): 2
- sensitivity class Prostate DU-145 CL11003 ([1]; cell line Prostate DU-145, CL11003): 2
- sensitivity class Prostate PC-3(I) CL11001 ([1]; cell line Prostate PC-3(I), CL11001): 2
- sensitivity class Renal 786-O CL9018 ([1]; cell line Renal 786-O, CL9018): 2
- sensitivity class Renal A498 CL9013 ([1]; cell line Renal A498, CL9013): 2
- sensitivity class Renal ACHN CL9023 ([1]; cell line Renal ACHN, CL9023): 3
- sensitivity class Renal SN12C CL9008 ([1]; cell line Renal SN12C, CL9008): 2
- sensitivity class Renal TK10 CL9024 ([1]; cell line Renal TK10, CL9024): 1
- 1 # of Low ([1]; number of the 60 cell lines classified Low (1) sensitivity): 12
- -Log (GI50) ([2]; Breast BT-549 (CL5013)): 5.0 and 5.1
- -Log (GI50) ([2]; Breast MCF7(I) (CL5001)): 5.7 and 5.5
- -Log (GI50) ([2]; Breast MCF7/ADRr (CL5002)): 6.1 and 6.0
- -Log (GI50) ([2]; Breast MDA-MB-435 (CL5011)): 4.7 and 4.6
- -Log (GI50) ([2]; Breast MDA-N CL5012): 4.8 and 4.6
- -Log (GI50) ([2]; Breast T-47D (CL5014)): 5.3 and 5.2
- -Log (GI50) ([2]; CNS SF-295 CL12015): 7.0 and 7.2
- -Log (GI50) ([2]; CNS SF-539 CL12016): 7.7
- -Log (GI50) ([2]; CNS SNB-19 (CL12002)): 5.4 and 5.5
- -Log (GI50) ([2]; Colon COLO-250 CL4010): 5.2 and 5.3
- -Log (GI50) ([2]; Colon HCC-2998 (CL4002)): 5.0 and 4.7
- -Log (GI50) ([2]; Colon HCT-116 (CL4003)): 6.4 and 6.2
- -Log (GI50) ([2]; Colon HT29(I) CL4001): 4.9 and 4.8
- -Log (GI50) ([2]; Colon KM12 (CL4017)): 4.9 and 4.8
- -Log (GI50) ([2]; Colon SW-620 (CL4009)): 5.1 and 5.0
- -Log (GI50) ([2]; Leukemia HL-60(I) (CL7008)): 5.2 and 5.3
- -Log (GI50) ([2]; Leukemia MOLT-4 (CL7006)): 5.9 and 6.2
- -Log (GI50) ([2]; Leukemia RPMI-8226(I) (CL7010)): 4.8 and 4.9
- -Log (GI50) ([2]; Melanoma LOX IMVI CL10001): 6.8
- -Log (GI50) ([2]; Melanoma M14 (CL10014)): 5.8 and 5.5
- -Log (GI50) ([2]; NSCLC NCI-H23(I) CL1001): 6.2 and 6.3
- -Log (GI50) ([2]; NSCLC NCI-H332M CL1017): 4.8 and 4.5
- -Log (GI50) ([2]; Ovarian OVCAR-3 CL6001): 5.3
- -Log (GI50) ([2]; Ovarian OVCAR-8 CL6005): 5.5 and 5.8
- -Log (GI50) ([2]; Ovarian SK-OV-3 CL6011): 5.2 and 5.4
- -Log (GI50) ([2]; Prostate DU-145 CL11003): 5.4 and 5.5
- -Log (GI50) ([2]; Prostate PC-3(I) CL11001): 5.1 and 5.3
- -Log (GI50) ([2]; Renal ACHN CL9023): 8.1 and 7.9
- -Log (GI50) ([2]; Renal RXF-393 CL9016): 6.7 and 6.6
- -Log (GI50) ([2]; Renal SN12C CL9008): 6.0 and 5.9
- -Log (GI50) ([2]; Renal TK10 CL9024): 5.0 and 4.7
